# Data reported in PubChem BioAssay AID844 (SRMLSC, 2007).
# Activity calls are given as the source filed them. The rule behind the calls is not given here.
# Tested on: MRP1 cells, doxorubicin viability shift, 10 uM compound
# Test: viability protection against doxorubicin, MRP-1 line – cell-based, doxorubicin EC50 shift, dose response (AID 844)
# Conditions: for EC50: measured here: doxorubicin EC50 with compound
SMILES,fold increase in Dox EC50,EC50
CCOC(=O)c1cc(-c2ccccc2)sc1NC(=O)C(C)Sc1nnc(C)s1 (configuration not stated),0.53 (inactive),2.87 µM
CN=C1S/C(=C\c2cc(C)n(-c3ccccc3F)c2C)C(=O)N1C,0.65 (inactive),3.49 µM
COc1ccc(Cl)cc1NC(=O)CSc1nnc(COc2ccccc2)n1N,0.86 (inactive),4.64 µM
CC1CCc2c(sc3nc(CSc4ncn[nH]4)[nH]c(=O)c23)C1 (configuration not stated),0.81 (inactive),4.4 µM
COc1ccc(CNc2nc(NCc3ccc(OC)cc3)n(S(C)(=O)=O)n2)cc1,1.07 (inactive),5.78 µM
O=C(COc1ccc(Br)cc1)N1CCN(C2CCCC2)CC1,1.08 (inactive),5.85 µM
Cc1ccc(N=Nc2c(N)[nH]n3c(=O)cc(-c4ccccc4)nc23)cc1,0.08 (inactive),0.452 µM
CCc1nnc(NC(=O)[C@@H](NC(=O)c2cccc(S(=O)(=O)N(CC)CC)c2)C(C)C)s1,0.4 (inactive),2.18 µM
O=C(/C(=C/O)N=Nc1ccccc1)c1ccncc1,1.4 (inactive),7.54 µM
Cc1ccc(C(=O)NC(C)c2ccc(F)cc2)cc1 (configuration not stated),0.68 (inactive),3.68 µM
Cc1cc(C)n(-c2ccc(C(=O)Nc3cccc(S(=O)(=O)N(C)C)c3)cc2)n1,0.73 (inactive),3.93 µM
Cc1sc2nc(C3CC3)nc(N3CCN(S(=O)(=O)c4ccc(F)cc4)CC3)c2c1C,0.3 (inactive),1.63 µM
c1ccc(-c2ccc(-c3nc(-c4ccncc4)no3)cc2)cc1,0.41 (inactive),2.21 µM
COc1ccccc1-c1nnc(SC2CCc3ccccc3NC2=O)s1 (configuration not stated),0.55 (inactive),2.98 µM
CC1CCC(NC(=O)Cn2c3c(c(-c4ccccc4Cl)cc2=O)CCC3)CC1 (configuration not stated),1.13 (inactive),6.11 µM
Cc1ccc(/C=C2\SC(=S)N(c3c(C)n(C)n(-c4ccccc4)c3=O)C2=O)cc1,0.97 (inactive),5.23 µM
Nc1ccc(CC2SC(=O)NC2=O)cc1 (configuration not stated),1.24 (inactive),6.72 µM
O=C(Nc1nc(=O)n(C(=O)C2CC2)s1)c1ccccc1,0.55 (inactive),2.97 µM
O=C(NCc1ccccc1)C(c1ccc(O)cc1)N(C(=O)Cn1nnc(-c2cccs2)n1)c1ccc2c(c1)OCCO2 (configuration not stated),0.86 (inactive),4.66 µM
O=c1cc(CN2CCN(c3cccc(Cl)c3)CC2)c2cc3c(cc2o1)CCCC3,0.74 (inactive),3.98 µM
Cc1nc2ccccc2c(=O)n1/N=C/c1c(O)ccc2oc3c(c12)CCCC3,0.28 (inactive),1.5 µM
CCOC(=O)c1[nH]c2cc(OC)c(OC)cc2c1N,0.96 (inactive),5.17 µM
CCCCCOc1ccc(CSc2ncn[nH]2)cc1,0.68 (inactive),3.69 µM
O=C(NNC1=C(C(=O)C(F)(F)F)CCC1)c1cccc(Cl)c1,1.03 (inactive),5.54 µM
N#Cc1nc(COc2ccc(Br)cc2)oc1N1CCCC1,1.26 (inactive),6.8 µM
CSC1=NCCN1C(=O)Cc1ccc(Cl)cc1,1.04 (inactive),5.6 µM

SMILES,fold increase in Dox EC50,EC50
COc1ccc(-c2[nH]ncc2-c2cnn(-c3ccccc3)c2)c(O)c1,0.27 (inactive),1.43 µM
COc1ccc(C2C(C(=O)Nc3cccc(C)n3)CCC(=O)N2c2ccc(OC)cc2)cc1 (configuration not stated),0.64 (inactive),3.44 µM
Cc1ccc(N2C(=O)Nc3ccc(Br)cc3C2(O)C(=O)NCCCN(C)C)cc1C (configuration not stated),0.69 (inactive),3.72 µM
Cc1ccc(CCNC(=O)C2CCCN2S(=O)(=O)c2ccc3c(c2)CCC(=O)N3)cc1 (configuration not stated),0.64 (inactive),3.46 µM
CCc1noc(C)c1C(=O)Nc1nc(-c2cc(C)ccc2C)c(C)s1,0.83 (inactive),4.48 µM
CCOc1ccc(NC(=O)CN2C(=O)COc3ccc(Cl)cc32)cc1,1.33 (inactive),7.19 µM
Cc1cccc2cc(CN(Cc3cccs3)C(=S)NCc3ccco3)c(=O)[nH]c12,0.41 (inactive),2.21 µM
CCOc1ccccc1Nc1ncnc2c1cnn2-c1ccccc1,0.57 (inactive),3.08 µM
COc1ccc(Cl)cc1N1C(=O)C2CCCN2C1c1ccc(F)c(F)c1 (configuration not stated),0.85 (inactive),4.61 µM
CCOC(=O)c1ccc(N2C(=O)c3n[nH]c(C)c3C2c2ccc(OC)cc2OC)cc1 (configuration not stated),0.28 (inactive),1.51 µM
CNC[C@H](O)c1ccc(O)c(O)c1,0.69 (inactive),3.75 µM
Cc1cccc(C2CC(c3ccccc3)Nc3ncnn32)c1 (configuration not stated),0.46 (inactive),2.46 µM
Cc1ccc(C)c(/C(O)=C2\C(=O)C(=O)N(CCCn3ccnc3)C2c2ccncc2)c1 (configuration not stated),1.17 (inactive),6.31 µM
O=C1C=C(O)CC(c2ccc(Cl)cc2)C1 (configuration not stated),1.04 (inactive),5.6 µM
CC(=O)N1CCN=C1SCc1ccccc1F,0.78 (inactive),4.2 µM
COc1ccc(N2C(S)=C(C#N)C(=O)NC2c2ccco2)cc1 (configuration not stated),0.41 (inactive),2.2 µM
CC1=NN(c2ccc(C)cc2C)C(=O)C1C(c1ccccc1O)C1C(=O)N(c2ccc(C)cc2C)N=C1C (configuration not stated),0.71 (inactive),3.81 µM
COc1ccccc1NC(=O)CSC1=NCCN1,0.68 (inactive),3.7 µM
CCC(Sc1nc2ccccc2o1)C(=O)Nc1nnc(C)s1 (configuration not stated),1.34 (inactive),7.22 µM
CCOc1ccc(OCC)c(-c2c(=O)n(OCc3ccc(Cl)cc3)c3ccccc3[n+]2[O-])c1,0.53 (inactive),2.86 µM
CCc1nnc(NC(=O)c2ccc(COc3ccc(C)cc3)o2)s1,1.33 (inactive),7.18 µM
CCOc1ccc(NC(=O)N2CCC(n3c(=O)[nH]c4ccccc43)CC2)cc1,0.9 (inactive),4.85 µM
Cn1cc(Br)c(C(=O)NNC(=O)c2ccc(Br)cc2)n1,0.98 (inactive),5.26 µM
CC(C)(C)c1ccc(OCC(O)CSc2ncn[nH]2)cc1 (configuration not stated),0.88 (inactive),4.74 µM
CCOC(=O)C1=C(C)N=C2SC(CC)C(=O)N2C1c1cccc(F)c1 (configuration not stated),1.14 (inactive),6.14 µM
CC(C)(CNC(=O)/C=C/c1ccc(F)cc1)CNC(=O)/C=C/c1ccc(F)cc1,0.38 (inactive),2.07 µM

SMILES,fold increase in Dox EC50,EC50
Cc1nc(=O)c(-c2ccccc2)c(C)n1-c1ccc(O)cc1,1.32 (inactive),7.13 µM
C=CCOc1c(CNc2ccc(C(=O)O)cc2)cccc1OCC,0.59 (inactive),3.21 µM
COc1ccc(CN=C2NC(=O)CC(C(=O)Nc3ccccc3C)S2)cc1 (configuration not stated),1.16 (inactive),6.24 µM
Cc1ccc(Cl)cc1N1CCN(C(=O)Cc2ccc(-n3c(=O)[nH]c4ccsc4c3=O)cc2)CC1,0.78 (inactive),4.24 µM
O=C(COc1cccnc1[N+](=O)[O-])Nc1ccc2c(c1)OC(F)(F)O2,0.7 (inactive),3.8 µM
CCOC(=O)c1c(NC(=O)CSc2ncn[nH]2)sc(C)c1C,0.32 (inactive),1.74 µM
COc1ccc(NS(=O)(=O)c2cc(NC(=O)CNC(=O)c3ccc(C)s3)ccc2Cl)cc1,1.44 (inactive),7.78 µM
Cc1nc2c(ccc3nc(NC(=O)C(c4ccccc4)c4ccccc4)sc32)s1,0.84 (inactive),4.51 µM
CCCCCCn1c(O)c(/C=C2\C=NN=C2c2ccccc2)sc1=S,0.77 (inactive),4.16 µM
c1coc(C2Nc3cccc4cccc(c34)N2)c1,0.21 (inactive),1.13 µM
CCc1nnc(NC(=O)C2CCCN2S(=O)(=O)c2ccccc2)s1 (configuration not stated),1.46 (inactive),7.89 µM
CCc1nnc(NC(=O)c2ccc(S(=O)(=O)NCC(C)C)cc2)s1,0.53 (inactive),2.88 µM
CCC(Oc1ccccc1)C(=O)Nc1nnc(C(F)(F)F)s1 (configuration not stated),1.69,9.1 µM
Cc1nc(=O)c(-c2ccccc2)c(C)n1-c1cccc(C(=O)O)c1,1.26 (inactive),6.82 µM
CCOc1ccc2c(c1)c(N=O)c(O)n2C,0.58 (inactive),3.14 µM
Cc1ccc(C(c2sc3ncnn3c2O)N2CC(C)CC(C)C2)cc1 (configuration not stated),0.72 (inactive),3.89 µM
CC(C)(C)C1CCc2c(sc(NC(=O)c3cccs3)c2C(=O)N2CCCCC2)C1 (configuration not stated),0.96 (inactive),5.2 µM
CC(C)CCC1CC(CSC(=N)N)OC1=O (configuration not stated),0.68 (inactive),3.68 µM
O=C(c1ccco1)N1CCN(c2nc(C3CC3)nc3c2nnn3Cc2ccccc2Cl)CC1,0.32 (inactive),1.7 µM
Oc1c(C(c2cccs2)N2CCN(c3ccccc3)CC2)sc2ncnn12 (configuration not stated),0.93 (inactive),5.02 µM
CCn1c(C)c(C)c2cc(C(=O)Nc3cccc(Cl)c3)ccc21,0.43 (inactive),2.33 µM
O=C(Nc1cccc(Cl)c1)c1c(O)c2c(n(Cc3ccccc3)c1=O)CCCC2,1.14 (inactive),6.17 µM
CCOC(=O)c1sc2nc3n(c(=O)c2c1C)CCCCC3,0.52 (inactive),2.81 µM
CC(Oc1ccc(Cl)cc1Cl)C(=O)NC1CCSC1=O (configuration not stated),1.98,10.7 µM
